A short description of data set [1]: LogP by HPLC on reversed phase columns (EEC directive 79/831 Annex V.A8). It counts as physicochemical. Particulars: method [a]: LC-UV, acidic range, 0.1% formic acid in water and acetonitrile as eluent (linear gradient 10% to 95% acetonitrile); for chromatographic logP: reversed phase HPLC column. On the procedure: [table] If more than one LogP value is available within the same method, all the values are given and separated by “+”. Calibration was done with straight-chain alkan2-ones (with 3 to 16 carbon atoms) with known LogP values (measurement of LogP values using retention times with linear interpolation between successive alkanones). Lambda-max-values were determined using UV-spectra from 200 nm to 400 nm and the peak values of the chromatographic signals.

For another data set, the system named is Sphaerotheca fuliginea. Description: In vivo preventive test on Sphaerotheca fuliginea (powdery mildew on cucurbits). The conditions noted are these: Podosphaera fuliginea, 360 h, read-out: efficacy. On the procedure: Example C: In Vivo Preventive Test on Sphaerotheca fuliginea (Powdery Mildew on Cucurbits)
(§1) The active ingredients are made soluble and homogenized in a mixture of Dimethyl sulfoxide/Acetone/Tween® 80 and then diluted in water to the desired concentration.
The young plants of gherkin are treated by spraying the active ingredient prepared as described above. Control plants are treated only with an aqueous solution of Acetone/Dimethyl sulfoxide/Tween® 80.
After 24 hours, the plants are contaminated by spraying the leaves with an aqueous suspension of Sphaerotheca fuliginea spores. The contaminated gherkin plants are incubated for 72 hours at 18° C. and at 100% relative humidity and then for 12 days at 20° C. and at 70-80% relative humidity.
The test is evaluated 15 days after the inoculation. 0% means an efficacy which corresponds to that of the control plants while an efficacy of 100% means that no disease is observed.

The subject of another data set is Septoria tritici. Description: In vivo preventive test on Septoria tritici (leaf spot on wheat). Particulars: Zymoseptoria tritici, 576 h, read-out: efficacy. On the procedure:
Example B: In Vivo Preventive Test on Septoria tritici (Leaf Spot on Wheat)
as §1
The young plants of wheat are treated by spraying the active ingredient prepared as described above. Control plants are treated only with an aqueous solution of Acetone/Dimethyl sulfoxide/Tween® 80.
After 24 hours, the plants are contaminated by spraying the leaves with an aqueous suspension of Septoria tritici spores. The contaminated wheat plants are incubated for 72 hours at 18° C. and at 100% relative humidity and then for 21 days at 20° C. and at 90% relative humidity.
The test is evaluated 24 days after the inoculation. 0% means an efficacy which corresponds to that of the control plants while an efficacy of 100% means that no disease is observed.

Where [2] appears, read: 500 ppm of active ingredient, gherkin plants, preventive spray, evaluated 15 days after inoculation, 100% = no disease.
Where [3] appears, read: 500 ppm of active ingredient, wheat plants, preventive spray, evaluated 24 days after inoculation, 100% = no disease.

The structures appear in SMILES notation. Where two headings read alike, the source gives them in different places.

Regarding `N#Cc1cncn1CC(O)(CCc1ccccc1)c1ccc(Cl)cc1F` (stereo not drawn) [I-49], in data set [1], the LogP was 3.37 ^[a].

Usually chromatographic logP stands for a lipophilicity value derived from retention on a column. Read a high chromatographic logP as higher lipophilicity. In the case of `N#Cc1cncn1CC(O)(CCc1ccc(C(F)(F)F)cc1)C1(F)CC1` (stereo not drawn) [I-03, 3-[2-(1-fluorocyclopropyl)-2-hydroxy-4-[4-(trifluoromethyl)phenyl]butyl]imidazole-4-carbonitrile], the pest or weed control at 500 ppm in the data set on Sphaerotheca fuliginea (setting [2]) and in the data set with Septoria tritici (setting [3]) was 90 to 100% each time. Also, the chromatographic logP in data set [1] is 3.15.

Regarding `CC1(c2ccc(CCC(O)(Cn3cncc3C#N)C3(F)CC3)cc2)CC1` (stereo not drawn) [I-21], in data set [1], the LogP was 3.55 ^[a].

Regarding `CC(C)(C)c1ccc(CCC(O)(Cn2cncc2C#N)C2(Cl)CC2)cc1` (stereo not drawn) [I-01], the LogP in data set [1] was 4.18 ^[a].

Turning to `CC1(C(O)(CCc2ccccc2)Cn2cncc2C#N)CC1` (stereo not drawn) [I-47], the LogP in data set [1] is 2.80 ^[a].

As for `CC(C)(C)C(O)(CCc1ccccc1)Cn1cncc1C#N` (stereo not drawn) [I-20], in data set [1], the LogP is 2.90 ^[a].

Take `CC(C)(C)C(O)(CCc1ccc(Cl)cc1)Cn1cncc1F` (stereo not drawn) [I-06, 1-(4-chlorophenyl)-3-[(5-fluoroimidazol-1-yl)methyl]-4,4-dimethyl-pentan-3-ol]: the pest or weed control at 500 ppm was in the range of 90 to 100% in the data set on Sphaerotheca fuliginea (setting [2]) and 80 to 89% with Septoria tritici (setting [3]). The same molecule returned a chromatographic logP in data set [1] of 2.25.

As to `N#Cc1cncn1CC(O)(CCc1ccc(F)nc1)C1(F)CC1` (stereo not drawn) [I-34], the LogP in data set [1] is 1.88 ^[a].

For the molecule `N#Cc1cncn1CC(O)(CCc1ccc(Cl)nc1)C1(Cl)CC1` (stereo not drawn) [I-28, 3-[2-(1-chlorocyclopropyl)-4-(6-chloro-3-pyridyl)-2-hydroxy-butyl]imidazole-4-carbonitrile], the pest or weed control at 500 ppm with Sphaerotheca fuliginea (setting [2]) and in the data set on Septoria tritici (setting [3]) was 90 to 100% in each case. This molecule also displayed a chromatographic logP in data set [1] of 2.39.

Regarding `N#Cc1cncn1CC(O)(CCc1ccc(Cl)cc1)C1(Cl)CC1` (stereo not drawn) [I-18, 3-[2-(1-chlorocyclopropyl)-4-(4-chlorophenyl)-2-hydroxy-butyl]imidazole-4-carbonitrile], the pest or weed control at 500 ppm in the data set on Sphaerotheca fuliginea (setting [2]) and in the data set on Septoria tritici (setting [3]) was 90 to 100% throughout. This molecule registered a chromatographic logP in data set [1] of 3.42.

For the molecule `OC(CCc1ccc(Cl)cc1)(Cn1cncc1Cl)C1(Cl)CC1` (stereo not drawn) [I-12], the LogP in data set [1] is 2.73 ^[a].

In the case of `N#Cc1cncn1CC(O)(CCc1ccc(C(F)(F)F)cc1)C1(Cl)CC1` (stereo not drawn) [I-08], the LogP in data set [1] is 3.48 ^[a].

With `N#Cc1cncn1CC(O)(CCc1ccc(Cl)cc1)C1CCC1` (stereo not drawn) [I-37], the LogP in data set [1] is 3.23 ^[a].

For `N#Cc1cncn1CC(O)(CCc1ccc(Cl)cc1F)c1ccc(Cl)cc1` (stereo not drawn) [I-44], the LogP in data set [1] was 3.64 ^[a].

For the molecule `N#Cc1cncn1CC(O)(CCc1ccccc1)C1CC1` (stereo not drawn) [I-31], the LogP in data set [1] was 2.49 ^[a].

`N#Cc1cncn1CC(O)(CCc1ccc(Cl)cc1)c1ccccc1` (stereo not drawn) [I-46, 3-[4-(4-chlorophenyl)-2-hydroxy-2-phenyl-butyl]imidazole-4-carbonitrile]: the pest or weed control at 500 ppm in the data set with Sphaerotheca fuliginea (setting [2]) and with Septoria tritici (setting [3]) was 90 to 100% each time. Also, in data set [1], the chromatographic logP was determined as 3.13.

As to `CC(C)(C)C(O)(CCc1ccc(Cl)cc1)Cn1cncc1C=O` (stereo not drawn) [I-05], the LogP in data set [1] is 3.02 ^[a].

Take `N#Cc1cncn1CC(O)(CCc1ccc(Cl)cc1)c1ccc(Cl)cc1` (stereo not drawn) [I-40]: in data set [1], the LogP was 3.96 ^[a].

As to `N#Cc1cncn1CC(O)(CCc1ccc(OC(F)(F)F)cc1)C1(F)CC1` (stereo not drawn) [I-14], the LogP in data set [1] is 3.29 ^[a].

On to `N#Cc1cncn1CC(O)(CCc1ccccc1)CC1CC1` (stereo not drawn) [I-42], for which the LogP in data set [1] is 2.62 ^[a].

For `CC(C)(C)C(O)(CCc1ccc(Cl)cc1)Cn1cncc1Cl` (stereo not drawn) [I-04], in data set [1], the LogP was 2.78 ^[a].

For the molecule `CC(C)(C)C(O)(CCc1ccc(Cl)cc1)Cn1cncc1C#N` (stereo not drawn) [I-02, 3-[2-[2-(4-chlorophenyl)ethyl]-2-hydroxy-3,3-dimethyl-butyl]imidazole-4-carbonitrile], the pest or weed control at 500 ppm in the data set with Sphaerotheca fuliginea (setting [2]) and in the data set on Septoria tritici (setting [3]) was 90 to 100% in each case. This molecule also registered a chromatographic logP in data set [1] of 3.31.

Turning to `CC(C)C(O)(CCc1ccccc1)Cn1cncc1C#N` (stereo not drawn) [I-36], in data set [1], the LogP is 2.53 ^[a].

As to `N#Cc1cncn1CC(O)(CCc1ccccc1F)C1(F)CC1` (stereo not drawn) [I-26], the LogP in data set [1] was 2.56 ^[a].

Turning to `N#Cc1cncn1CC(O)(CCc1ccc(Cl)cc1F)c1ccccc1` (stereo not drawn) [I-52], the LogP in data set [1] was 3.23 ^[a].

Turning to `N#Cc1cncn1CC(O)(CCc1ccc(Cl)cc1)CC1CC1` (stereo not drawn) [I-43], in data set [1], the LogP is 3.02 ^[a].

Turning to `N#Cc1cncn1CC(O)(CCc1ccccc1)C1(F)CC1` (stereo not drawn) [I-10, 3-[2-(1-fluorocyclopropyl)-2-hydroxy-4-phenyl-butyl]imidazole-4-carbonitrile], the pest or weed control at 500 ppm in the data set with Sphaerotheca fuliginea (setting [2]) and in the data set with Septoria tritici (setting [3]) was 90 to 100% throughout. For the same molecule, the chromatographic logP in data set [1] is 2.53.

On to `CC1(c2ccc(CCC(O)(Cn3cncc3C#N)C3(Cl)CC3)cc2)CC1` (stereo not drawn) [I-24], for which the LogP in data set [1] is 4.03 ^[a].

On to `Cc1ccc(CCC(O)(Cn2cncc2C#N)C2(Cl)CC2)cc1` (stereo not drawn) [I-19], for which the LogP in data set [1] was 3.23 ^[a].

Consider `Cc1ccc(CCC(O)(Cn2cncc2C#N)C(C)(C)C)cc1` (stereo not drawn) [I-29], for which, in data set [1], the LogP is 3.22 ^[a].

As to `N#Cc1cncn1CC(O)(CCc1ccc(F)nc1)C1(Cl)CC1` (stereo not drawn) [I-33], in data set [1], the LogP is 2.20 ^[a].

Turning to `CC(C)(C)C(O)(CCc1ccc(Cl)cc1)Cn1cncc1Br` (stereo not drawn) [I-11], in data set [1], the LogP was 2.75 ^[a].

`CC(C)(CC(O)(Cn1cncc1C#N)C1(Cl)CC1)c1ccccc1` (stereo not drawn) [I-13, 1-[2-(1-chlorocyclopropyl)-2-hydroxy-4-methyl-4-phenylpentyl]-1H-imidazole-5-carbonitrile]: the pest or weed control at 500 ppm in the data set with Sphaerotheca fuliginea and in the data set with Septoria tritici was 90 to 100% throughout. For the same molecule, in data set [1], the chromatographic logP was determined as 3.09.

On to `N#Cc1cncn1CC(O)(CCc1ccccc1)C1(Cl)CC1` (stereo not drawn) [I-07], for which the LogP in data set [1] was 2.88 ^[a].

As to `N#Cc1cncn1CC(O)(CCc1ccccc1)C1CCC1` (stereo not drawn) [I-38], the LogP in data set [1] is 2.80 ^[a].

In the case of `N#Cc1cncn1CC(O)(CCc1ccc(Cl)cc1)C1(F)CC1` (stereo not drawn) [I-22], in data set [1], the LogP was 2.98 ^[a].

Molecule `N#Cc1cncn1CC(O)(CCC1Cc2ccccc2O1)C1(F)CC1` (stereo not drawn) [I-53, 1-[4-(2,3-dihydro-1-benzofuran-2-yl)-2-(1-fluorocyclopropyl)-2-hydroxybutyl]-1H-imidazole-5-carbonitrile] came in with a chromatographic logP in data set [1] of 2.61.

Consider `N#Cc1cncn1CC(O)(CCc1ccc(Cl)cc1)C1CC1` (stereo not drawn) [I-30], for which, in data set [1], the LogP is 2.90 ^[a].

Consider `Cc1ccc(CCC(O)(Cn2cncc2C#N)C2(F)CC2)cc1` (stereo not drawn) [I-17], for which, in data set [1], the LogP was 2.90 ^[a].

In the case of `N#Cc1cncn1CC(O)(CCc1cccnc1)C1(F)CC1` (stereo not drawn) [I-23], in data set [1], the LogP is 0.53 ^[a].

For `N#Cc1cncn1CC(O)(CCc1ccc(Cl)nc1)C1(F)CC1` (stereo not drawn) [I-27], the LogP in data set [1] is 2.03 ^[a].

On to `CC(C)(C)C(O)(CCc1ccc(C(F)(F)F)cc1)Cn1cncc1C#N` (stereo not drawn) [I-41], for which, in data set [1], the LogP was 3.42 ^[a].

For the molecule `CC(C)C(O)(CCc1ccc(Cl)cc1)Cn1cncc1C#N` (stereo not drawn) [I-35], the LogP in data set [1] was 2.95 ^[a].

Take `N#Cc1cncn1CC(O)(CCc1ccc(Cl)cc1)c1ccc(Cl)cc1F` (stereo not drawn) [I-51]: in data set [1], the LogP was 3.79 ^[a].

As for `CC1(C(O)(CCc2ccc(Cl)cc2)Cn2cncc2C#N)CC1` (stereo not drawn) [I-48], the LogP in data set [1] is 3.22 ^[a].

Regarding `CC(C)(C)c1ccc(CCC(O)(Cn2cncc2C#N)C2(F)CC2)cc1` (stereo not drawn) [I-09], the LogP in data set [1] was 3.78 ^[a].

Turning to `N#Cc1cncn1CC(O)(CCc1ccc(Cl)cc1F)C1(F)CC1` (stereo not drawn) [I-25], the LogP in data set [1] was 3.00 ^[a].

For `N#Cc1cncn1CC(O)(CCc1ccccc1)c1ccc(Cl)cc1` (stereo not drawn) [I-39], in data set [1], the LogP is 3.46 ^[a].

Turning to `N#Cc1cncn1CC(O)(CCc1ccccc1)c1ccccc1` (stereo not drawn) [I-45], the LogP in data set [1] was 2.74 ^[a].

For `N#Cc1cncn1CC(O)(CCc1ccc(F)cc1F)C1(F)CC1` (stereo not drawn) [I-15], in data set [1], the LogP is 2.69 ^[a].

In the case of `N#Cc1cncn1CC(O)(CCc1ccc(Cl)cc1F)C1(Cl)CC1` (stereo not drawn) [I-32], the LogP in data set [1] is 3.41 ^[a].

For the molecule `N#Cc1cncn1CC(O)(CCc1ccc(OC(F)(F)F)c(F)c1)C1(Cl)CC1` (stereo not drawn) [I-16], in data set [1], the LogP is 3.69 ^[a].

For `N#Cc1cncn1CC(O)(CCc1ccc(Cl)cc1F)c1ccc(Cl)cc1F` (stereo not drawn) [I-50], the LogP in data set [1] is 3.75 ^[a].

The values are drawn from patent US20190218187A1, “Novel 5-substituted imidazolylmethyl derivatives” (Bayer CropScience Aktiengesellschaft, priority 2016, published 2019).
